In patent US20240343732A1, “COMPOUNDS FOR DEGRADATION OF CYCLIN-DEPENDENT KINASE 7(CDK7)” (QURIENT CO., LTD., priority 2021, published 2024):

What was measured:
CDK1 = target: T1, CDK1 (Homo sapiens, UniProt P06493); test: Binding assay (FRET, LanthaScreen Eu, Tracer236) for CDK1; conditions: for IC50: read-out: CDK1 IC50 (enzyme binding assay)
T1 construct: His; purchased Invitrogen PR4768C
Description: (§1) Inhibition activity of compound to CDK7 kinase was tested in a binding assay which was applied to the FRET (fluorescence resonance energy transfer) principle from the europium (Eu) donor fluorophore to the acceptor fluorophore on the kinase tracer. Test compounds were made to 1.125 mM of compound solution, and then this compound solution 4-fold serial diluted in 8 steps using an automated liquid handler (JANUS™, PerkinElmer). 80 nL/well of each diluted compound solution was added into the 384-well plate (Greiner, Cat #784075) first and 7.5 ul/well of working solution [5 nM of CDK7/CycH/MNAT1 (Invitrogen, Cat #PR6749B), 4 nM of Biotin anti-His Tag Antibody (Invitrogen, Cat #PV6090), and LanthaScreen® Eu-Streptavidin (Invitrogen, Cat #PV6025)] was added. After mixing the solution well, the same volume with the working solution of Tracer236 (Invitrogen, Cat #PV5592) was added into each well in the plate. The plate was incubated for 60 minutes at room temperature and then all the fluorescence were measured using Envision leader (Perkin Elmer, USA) [Laser as excitation light; […] as the first and the second emission filter]. Data was analysed using XL Fit software.
(§2) All of the synthesized compounds were screened in the above-mentioned assay procedure. To identify the inhibition activity of compounds for other CDKs including CDK1 (Invitrogen, Cat #PR4768C), CDK2 (Invitrogen, Cat #PR4448B) and CDK5 (Invitrogen, Cat #PR8543B) were tested using the same protocol under reasonable concentration of Tracer236 and kinases for each assay. The formula for the assay buffer summarized in below table.

CDK2 = target: T2, CDK2 (Homo sapiens, UniProt P24941); test: Binding assay (FRET, LanthaScreen Eu, Tracer236) for CDK2; conditions: for IC50: read-out: CDK2 IC50 (enzyme binding assay)
T2 construct: His; purchased Invitrogen PR4448B
Description: as §1, §2

CDK5 = target: T3, CDK5 (Homo sapiens, UniProt Q00535); test: Binding assay (FRET, LanthaScreen Eu, Tracer236) for CDK5; conditions: for IC50: read-out: CDK5 IC50 (enzyme binding assay)
T3 construct: His; purchased Invitrogen PR8543B
Description: as §1, §2

CDK7 protein = target: T4, CDK7 protein (Homo sapiens, UniProt P50613); test: Western blot assay for CDK7 protein degradation in A2780 cells; assay type: cell-based; conditions: 24 hours; for DC50: read-out: Compound concentration that caused 50% CDK7 protein degradation in A2780 cells (DC50);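 on all read-outs here: A is DC50 up to 100 nM B is 100 to 1000 nM C is above 1000 nM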
T4 construct: To verify endogenous CDK7 protein degradation; endogenous in cells; host or cells: A2780 (ECACC 93112519)
Description: Human ovarian cancer cell line, A2780 (Cat #93112519) was obtained from ECACC. Cells were grown in RPMI-1640 media (Invitrogen, Cat #22400105) supplemented with 10% FBS (Hyclone, Cat #SH30084.03) and 1% penicillin/streptomycin (Hyclone, Cat #SV30010) and cultured at 37° C., 5% Co2 in a humidified chamber. All cell lines were routinely tested for mycoplasma.
To verify endogenous CDK7 protein degradation upon treatment of CDK7-specific degrader, the western blot assay was conducted a 24 hours' time period. 6×10^5 cells/well of A2780 cells were plated in 6-well plate. After 24 hours, the cells were treated with various concentrations of the compound corresponding range. DMSO solvent without compound served as a control and final DMSO concentration was not to exceed 0.1% of total volume. After 24 hours of incubation at 37° C., 5% Co2 incubator, cells were collected and lysed with 60 ul of lysis buffer. Collected lysates were incubated for 30 min on ice and collect supernatant through centrifugation at 12,000 rpm for 10 min at 4° C. The protein in lysates were quantified with BCA protein quantification kit (Pierce, Cat #23227) following manufacture's protocol. Cell lysates were diluted into 1 ug/ul of concentration with lysis buffer. 20 ug of protein was loaded to each well of 4˜12% Bis-Tris gel (Invitrogen, Cat #NP0336BOX) with MOPS running buffer (Invitrogen, Cat #NP0001). The proteins were transferred from gel to membrane and incubated with primary antibody as followed at 4° C. overnight; CDK7 (CST, Cat #2090S) and β-actin (Santa Cruz, Cat #sc-47778) 1:20,000. The signals were developed and acquired with ImageQuant™ LAS 4000.

CDK7/CycH/MNAT1 = target: T5, CDK7/CycH/MNAT1 (Homo sapiens, UniProt P50613); test: Binding assay (FRET, LanthaScreen Eu, Tracer236) for CDK7; conditions: read-out: CDK7 IC50 (enzyme binding assay)
T5 construct: His; purchased Invitrogen PR6749B
Description: as §1, §2

T5 sequence (P50613 whole entry): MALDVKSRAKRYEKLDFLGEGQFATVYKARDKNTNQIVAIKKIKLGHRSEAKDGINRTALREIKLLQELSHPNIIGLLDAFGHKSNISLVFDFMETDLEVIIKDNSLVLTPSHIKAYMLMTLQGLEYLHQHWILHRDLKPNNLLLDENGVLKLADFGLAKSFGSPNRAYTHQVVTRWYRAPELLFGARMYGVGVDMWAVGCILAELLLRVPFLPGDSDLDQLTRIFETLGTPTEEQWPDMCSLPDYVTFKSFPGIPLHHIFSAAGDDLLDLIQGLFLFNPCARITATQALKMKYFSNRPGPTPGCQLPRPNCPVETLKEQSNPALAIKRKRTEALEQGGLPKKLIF
T5 sequence (P51946 whole entry partner): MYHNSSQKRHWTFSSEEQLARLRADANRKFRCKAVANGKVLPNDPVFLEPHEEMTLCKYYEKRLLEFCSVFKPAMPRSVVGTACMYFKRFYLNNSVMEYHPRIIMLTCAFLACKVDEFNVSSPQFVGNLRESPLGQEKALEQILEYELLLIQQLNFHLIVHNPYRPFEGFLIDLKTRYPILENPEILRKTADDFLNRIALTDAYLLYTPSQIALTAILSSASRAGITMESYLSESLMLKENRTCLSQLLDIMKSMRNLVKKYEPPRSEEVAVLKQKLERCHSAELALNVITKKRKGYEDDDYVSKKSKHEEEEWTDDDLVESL
T5 sequence (P51948 whole entry partner): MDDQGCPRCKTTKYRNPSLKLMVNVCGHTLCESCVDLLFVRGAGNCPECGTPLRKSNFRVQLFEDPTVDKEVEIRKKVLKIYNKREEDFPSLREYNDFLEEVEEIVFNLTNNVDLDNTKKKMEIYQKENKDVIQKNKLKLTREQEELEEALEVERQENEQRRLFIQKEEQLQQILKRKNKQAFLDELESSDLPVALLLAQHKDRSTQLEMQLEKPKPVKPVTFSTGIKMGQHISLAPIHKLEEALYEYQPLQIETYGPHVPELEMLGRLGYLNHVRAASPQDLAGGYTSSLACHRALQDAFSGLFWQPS
T4 sequence (P50613 whole entry): as the sequence (P50613 whole entry) above
T3 sequence (Q00535 whole entry): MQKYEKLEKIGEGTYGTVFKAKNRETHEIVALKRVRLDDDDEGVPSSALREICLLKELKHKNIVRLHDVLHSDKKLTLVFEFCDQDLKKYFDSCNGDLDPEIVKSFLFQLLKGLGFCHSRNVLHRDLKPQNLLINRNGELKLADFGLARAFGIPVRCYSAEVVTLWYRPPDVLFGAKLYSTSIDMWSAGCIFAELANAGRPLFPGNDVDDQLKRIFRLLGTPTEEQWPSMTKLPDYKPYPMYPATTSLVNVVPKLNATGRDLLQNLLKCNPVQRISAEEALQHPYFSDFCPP
T3 sequence (Q15078 99-307 partner limits assumed): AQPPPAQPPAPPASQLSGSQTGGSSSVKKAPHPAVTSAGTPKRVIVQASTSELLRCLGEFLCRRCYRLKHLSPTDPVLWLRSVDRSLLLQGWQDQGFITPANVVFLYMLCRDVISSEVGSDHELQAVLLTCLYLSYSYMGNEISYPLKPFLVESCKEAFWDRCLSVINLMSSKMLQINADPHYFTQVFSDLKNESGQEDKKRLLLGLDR
T1 sequence (P06493 whole entry): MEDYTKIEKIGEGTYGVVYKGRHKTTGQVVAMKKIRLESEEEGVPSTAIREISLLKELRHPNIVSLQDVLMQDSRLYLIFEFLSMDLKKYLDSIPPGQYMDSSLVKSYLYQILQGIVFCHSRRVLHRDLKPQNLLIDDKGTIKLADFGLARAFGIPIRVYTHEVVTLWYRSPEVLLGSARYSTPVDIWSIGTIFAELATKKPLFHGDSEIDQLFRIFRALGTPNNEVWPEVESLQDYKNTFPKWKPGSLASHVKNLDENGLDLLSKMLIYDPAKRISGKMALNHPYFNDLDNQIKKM
T1 sequence (P14635 whole entry partner): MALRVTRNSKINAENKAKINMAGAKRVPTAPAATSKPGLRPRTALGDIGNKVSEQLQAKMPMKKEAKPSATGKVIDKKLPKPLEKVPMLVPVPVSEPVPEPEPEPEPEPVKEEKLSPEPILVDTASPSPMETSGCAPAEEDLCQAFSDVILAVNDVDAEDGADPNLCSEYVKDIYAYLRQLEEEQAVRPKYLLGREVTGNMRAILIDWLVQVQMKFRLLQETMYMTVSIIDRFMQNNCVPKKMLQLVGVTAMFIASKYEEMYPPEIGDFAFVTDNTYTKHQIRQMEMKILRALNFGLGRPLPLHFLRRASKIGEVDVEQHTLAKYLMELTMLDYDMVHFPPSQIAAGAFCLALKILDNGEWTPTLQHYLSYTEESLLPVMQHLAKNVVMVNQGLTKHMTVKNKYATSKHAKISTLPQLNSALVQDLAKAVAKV

Row | SMILES | CDK1/CDK7: Selectivity of CDK7 inhibition over CDK1 inhibition (CDK1) | IC50 (CDK1) [nM] | CDK2/CDK7: Selectivity of CDK7 inhibition over CDK2 inhibition (CDK2) | IC50 (CDK2) [nM] | CDK5/CDK7: Selectivity of CDK7 inhibition over CDK5 inhibition (CDK5) | IC50 (CDK5) [nM] | DC50 (CDK7 protein) [nM] | IC50 (CDK7/CycH/MNAT1) [nM] | Compound concentration that caused 50% CDK7 protein degradation in A2780 cells (DC50, nM) (CDK7 protein)
1 | CC(C)c1cnn2c(NCc3ccccc3-c3nccc4cc(NCC5CCN(C6CCN(c7ccc8c(c7)C(=O)N(C7CCC(=O)NC7=O)C8=O)CC6)CC5)ccc34)nc(O[C@@H]3CCCNC3)nc12 (some centres unmarked) [Compound 31] | A (A indicates [fold] > 500) | > 1000 | A (A indicates [fold] > 500) | > 1000 | B (B indicates 50 < [fold] ≤ 500) | > 1000 | ≤ 100 | ≤ 100 | 
2 | CC(C)C[C@H](NC(=O)[C@@H](O)[C@H](N)Cc1ccccc1)C(=O)NCCOCCOCCNc1ccc2c(-c3ccccc3CNc3nc(O[C@@H]4CCCNC4)nc4c(C(C)C)cnn34)nccc2c1 [Compound 13] | A (A indicates [fold] > 500) | > 1000 | A (A indicates [fold] > 500) | > 1000 | A (A indicates [fold] > 500) | > 1000 | > 1000 | ≤ 100 | 
3 | Cc1ncsc1-c1ccc(CNC(=O)[C@@H]2C[C@@H](O)CN2C(=O)[C@@H](NC(=O)C2(F)CC2)C(C)(C)C)c(OCCOCCOCCNc2ccc3c(-c4ccccc4CNc4nc(O[C@@H]5CCCNC5)nc5c(C(C)C)cnn45)nccc3c2)c1 [Compound 11] | A (A indicates [fold] > 500) | > 1000 | A (A indicates [fold] > 500) | > 1000 | A (A indicates [fold] > 500) | > 1000 | ≤ 100 | ≤ 100 | 
4 | Cc1ncsc1-c1ccc(CNC(=O)[C@@H]2C[C@@H](O)CN2C(=O)[C@@H](NC(=O)C2(F)CC2)C(C)(C)C)c(OCCN2CCC(N3CCC(CNc4ccc5c(-c6ccccc6CNc6nc(O[C@@H]7CCCNC7)nc7c(C(C)C)cnn67)nccc5c4)CC3)CC2)c1 [Compound 25] | A (A indicates [fold] > 500) | > 1000 | A (A indicates [fold] > 500) | > 1000 | A (A indicates [fold] > 500) | > 1000 | ≤ 100 | ≤ 100 | 
5 | CC(C)c1cnn2c(NCc3ccccc3-c3nccc4cc(NCCOCCOCCNC(=O)CNc5ccc6c(c5)C(=O)N(C5CCC(=O)NC5=O)C6=O)ccc34)nc(O[C@@H]3CCCNC3)nc12 (some centres unmarked) [Compound 10] | A (A indicates [fold] > 500) | > 1000 | A (A indicates [fold] > 500) | > 1000 | A (A indicates [fold] > 500) | > 1000 | 100 to 1000 | ≤ 100 | B or A
6 | CC(C)c1cnn2c(NCc3ccccc3-c3nccc4cc(NCCOCCOCCNC(=O)CNc5cccc6c5CN(C5CCC(=O)NC5=O)C6=O)ccc34)nc(O[C@@H]3CCCNC3)nc12 (some centres unmarked) [Compound 14] | A (A indicates [fold] > 500) | > 1000 | A (A indicates [fold] > 500) | > 1000 | A (A indicates [fold] > 500) | > 1000 | 100 to 1000 | ≤ 100 | B or A
7 | Cc1ncsc1-c1ccc(CNC(=O)[C@@H]2C[C@@H](O)CN2C(=O)[C@@H](NC(=O)CCOCCOCCNc2ccc3c(-c4ccccc4CNc4nc(O[C@@H]5CCCNC5)nc5c(C(C)C)cnn45)nccc3c2)C(C)(C)C)cc1 [Compound 15] | A (A indicates [fold] > 500) | > 1000 | A (A indicates [fold] > 500) | > 1000 | A (A indicates [fold] > 500) | > 1000 | ≤ 100 | ≤ 100 | 
8 | Cc1ncsc1-c1ccc(CNC(=O)[C@@H]2C[C@@H](O)CN2C(=O)[C@@H](NC(=O)C2(F)CC2)C(C)(C)C)c(OCCCCCCCCNc2ccc3c(-c4ccccc4CNc4nc(O[C@@H]5CCCNC5)nc5c(C(C)C)cnn45)nccc3c2)c1 [Compound 22] | A (A indicates [fold] > 500) | > 1000 | A (A indicates [fold] > 500) | > 1000 | B (B indicates 50 < [fold] ≤ 500) | > 1000 | 100 to 1000 | 100 to 1000 | B or A
9 | CC(C)c1cnn2c(NCc3ccccc3-c3nccc4cc(N5CCN(CC6CCN(c7ccc8c(c7)C(=O)N(C7CCC(=O)NC7=O)C8=O)CC6)CC5)ccc34)nc(O[C@@H]3CCCNC3)nc12 (some centres unmarked) [Compound 33] | A (A indicates [fold] > 500) | > 1000 | A (A indicates [fold] > 500) | > 1000 | B (B indicates 50 < [fold] ≤ 500) | > 1000 | ≤ 100 | ≤ 100 | 
10 | CC(C)c1cnn2c(NCc3ccccc3-c3nccc4cc(NCCOCCOCCNC(=O)CNc5cccc6c5C(=O)N(C5CCC(=O)NC5=O)C6=O)ccc34)nc(O[C@@H]3CCCNC3)nc12 (some centres unmarked) [Compound 7] | A (A indicates [fold] > 500) | > 1000 | A (A indicates [fold] > 500) | > 1000 | A (A indicates [fold] > 500) | > 1000 | 100 to 1000 | ≤ 100 | B or A
11 | CC(C)c1cnn2c(NCc3ccccc3-c3nccc4cc(N5CCC(CN6CCN(c7ccc8c(c7)C(=O)N(C7CCC(=O)NC7=O)C8=O)CC6)CC5)ccc34)nc(O[C@@H]3CCCNC3)nc12 (some centres unmarked) [Compound 34] | A (A indicates [fold] > 500) | > 1000 | A (A indicates [fold] > 500) | > 1000 | A (A indicates [fold] > 500) | > 1000 | ≤ 100 | ≤ 100 | 
